One series has as its target hERG (KCNH2) (Homo sapiens, UniProt Q12809). In words: HERG_DOFETILIDE Eurofins SafetyScreen44 (BI). The note with it: probe [3H]dofetilide, compound concentration 10 uM, read-out: % Ctrl.
For a further series, the target named is MAO-A (Rattus norvegicus, UniProt P21396). The series can be described thus: MAO-A_ANTAG Eurofins SafetyScreen44 (BI). Also on record: scale not given: the % may be the effect or the level left. The following applies: compound concentration 10 uM, read-out: % Ctrl.
The target of series [1] is Beta-2 adrenergic receptor (Homo sapiens) (UniProt P07550). The following applies: Compound concentration 10.0 uM.
Series [2] addresses 17-beta-hydroxysteroid dehydrogenase 13 (Mus musculus, UniProt Q8VCR2). The series can be described thus: Enzymatic assay (mHSD17B13). Type of series: functional.
Series [3] addresses Beta-1 adrenergic receptor (Homo sapiens) (UniProt P08588). The following applies: Compound concentration 10.0 uM.
Series [4] has as its target Sigma intracellular receptor 2 (Homo sapiens) (UniProt Q5BJF2). The following applies: Compound concentration 10.0 uM.
In series [5] the target is Kappa-type opioid receptor (Homo sapiens) (UniProt P41145). The note with it: Compound concentration 10.0 uM.
For series [6], the target named is Estradiol 17-beta-dehydrogenase 11 (Homo sapiens, UniProt Q8NBQ5). In words: Enzymatic assay (hHSD17B11). It counts as functional.
For series [7], the target named is Sigma non-opioid intracellular receptor 1 (Homo sapiens) (UniProt Q99720). The following applies: Compound concentration 10.0 uM.
Series [8] deals with Kappa-type opioid receptor (Homo sapiens) (UniProt P41145). The series can be described thus: KAPPA(KOP)_HU Eurofins SafetyScreen44 (BI). The following applies: Compound concentration 10.0 uM.
The target in series [9] is D(1A) dopamine receptor (Homo sapiens) (UniProt P21728). The note with it: Compound concentration 10.0 uM.
In series [10] the target is D(2) dopamine receptor (Homo sapiens) (UniProt P14416). The following applies: Compound concentration 10.0 uM.
The target in series [11] is 5-hydroxytryptamine receptor 6 (Homo sapiens) (UniProt P50406). The following applies: Compound concentration 10.0 uM.
In series [12] the target is T1, 5-hydroxytryptamine receptor 1A (Homo sapiens) (UniProt P08908).
T1 sequence (whole entry): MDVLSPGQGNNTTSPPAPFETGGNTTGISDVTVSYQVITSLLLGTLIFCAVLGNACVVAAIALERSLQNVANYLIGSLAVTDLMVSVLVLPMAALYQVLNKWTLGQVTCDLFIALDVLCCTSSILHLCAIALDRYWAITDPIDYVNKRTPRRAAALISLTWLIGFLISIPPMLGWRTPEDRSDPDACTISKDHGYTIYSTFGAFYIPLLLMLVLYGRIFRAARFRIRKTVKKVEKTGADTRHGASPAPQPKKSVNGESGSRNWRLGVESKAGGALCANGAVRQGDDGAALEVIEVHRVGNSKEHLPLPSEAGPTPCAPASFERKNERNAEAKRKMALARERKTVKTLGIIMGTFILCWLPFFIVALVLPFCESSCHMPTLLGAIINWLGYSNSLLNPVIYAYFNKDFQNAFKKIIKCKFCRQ
The following applies: Compound concentration 10.0 uM.

Series [13] has as its target 5-hydroxytryptamine receptor 2C (Homo sapiens) (UniProt P28335). The note with it: Compound concentration 10.0 uM.
The target in series [14] is T2, Muscarinic acetylcholine receptor M1 (Homo sapiens) (UniProt P11229).
T2 sequence (whole entry): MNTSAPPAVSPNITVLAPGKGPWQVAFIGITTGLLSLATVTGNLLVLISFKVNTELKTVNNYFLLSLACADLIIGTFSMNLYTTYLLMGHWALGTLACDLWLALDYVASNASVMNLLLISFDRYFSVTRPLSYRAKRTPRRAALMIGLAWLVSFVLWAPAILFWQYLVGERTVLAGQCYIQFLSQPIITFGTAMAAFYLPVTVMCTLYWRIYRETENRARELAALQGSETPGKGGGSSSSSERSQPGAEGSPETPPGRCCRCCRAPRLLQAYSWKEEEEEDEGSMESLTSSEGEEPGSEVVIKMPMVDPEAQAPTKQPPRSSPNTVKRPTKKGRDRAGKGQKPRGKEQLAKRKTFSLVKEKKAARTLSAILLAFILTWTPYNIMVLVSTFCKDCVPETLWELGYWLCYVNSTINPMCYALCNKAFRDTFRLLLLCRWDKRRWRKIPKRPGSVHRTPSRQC
The note with it: Compound concentration 10.0 uM.

The source of these data is ChEMBL document CHEMBL5303761, “Data for DCP probe BI-3231” (2023).

Sigma non-opioid intracellular receptor 1 (Homo sapiens), sequence (Q99720 whole entry): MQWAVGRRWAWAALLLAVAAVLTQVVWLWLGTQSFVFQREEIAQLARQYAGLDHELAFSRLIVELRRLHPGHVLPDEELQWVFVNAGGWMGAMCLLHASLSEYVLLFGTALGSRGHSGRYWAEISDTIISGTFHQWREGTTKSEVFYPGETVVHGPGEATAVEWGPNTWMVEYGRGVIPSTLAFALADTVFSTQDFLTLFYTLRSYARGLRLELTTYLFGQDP
Kappa-type opioid receptor (Homo sapiens), sequence (P41145 whole entry): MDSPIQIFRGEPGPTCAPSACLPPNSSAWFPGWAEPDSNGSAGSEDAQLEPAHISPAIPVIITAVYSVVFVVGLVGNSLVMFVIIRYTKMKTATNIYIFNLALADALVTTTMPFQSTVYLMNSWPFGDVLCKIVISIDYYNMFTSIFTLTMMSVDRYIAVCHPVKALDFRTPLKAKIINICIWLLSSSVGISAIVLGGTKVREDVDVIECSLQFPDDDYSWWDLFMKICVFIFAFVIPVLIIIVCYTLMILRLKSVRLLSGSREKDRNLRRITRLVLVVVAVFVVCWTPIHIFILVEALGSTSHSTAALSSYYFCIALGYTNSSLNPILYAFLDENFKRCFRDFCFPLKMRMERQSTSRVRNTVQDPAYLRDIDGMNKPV
Sigma intracellular receptor 2 (Homo sapiens), sequence (Q5BJF2 whole entry): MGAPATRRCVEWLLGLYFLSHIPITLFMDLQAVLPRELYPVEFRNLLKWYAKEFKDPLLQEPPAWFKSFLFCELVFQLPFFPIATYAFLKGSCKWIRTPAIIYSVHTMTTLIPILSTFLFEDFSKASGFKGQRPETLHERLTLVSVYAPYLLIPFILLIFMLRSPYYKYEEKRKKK
D(1A) dopamine receptor (Homo sapiens), sequence (P21728 whole entry): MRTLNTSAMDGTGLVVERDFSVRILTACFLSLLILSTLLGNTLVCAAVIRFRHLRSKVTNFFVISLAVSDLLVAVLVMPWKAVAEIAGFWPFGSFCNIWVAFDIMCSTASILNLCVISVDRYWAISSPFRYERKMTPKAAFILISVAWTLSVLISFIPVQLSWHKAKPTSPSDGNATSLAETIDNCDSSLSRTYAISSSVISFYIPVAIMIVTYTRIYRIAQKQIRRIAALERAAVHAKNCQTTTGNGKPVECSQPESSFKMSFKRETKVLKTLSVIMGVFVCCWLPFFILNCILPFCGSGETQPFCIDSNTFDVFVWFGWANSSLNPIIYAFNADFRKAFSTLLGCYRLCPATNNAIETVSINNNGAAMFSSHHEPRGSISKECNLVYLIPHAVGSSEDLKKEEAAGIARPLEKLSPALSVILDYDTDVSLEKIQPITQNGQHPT
D(2) dopamine receptor (Homo sapiens), sequence (P14416 whole entry): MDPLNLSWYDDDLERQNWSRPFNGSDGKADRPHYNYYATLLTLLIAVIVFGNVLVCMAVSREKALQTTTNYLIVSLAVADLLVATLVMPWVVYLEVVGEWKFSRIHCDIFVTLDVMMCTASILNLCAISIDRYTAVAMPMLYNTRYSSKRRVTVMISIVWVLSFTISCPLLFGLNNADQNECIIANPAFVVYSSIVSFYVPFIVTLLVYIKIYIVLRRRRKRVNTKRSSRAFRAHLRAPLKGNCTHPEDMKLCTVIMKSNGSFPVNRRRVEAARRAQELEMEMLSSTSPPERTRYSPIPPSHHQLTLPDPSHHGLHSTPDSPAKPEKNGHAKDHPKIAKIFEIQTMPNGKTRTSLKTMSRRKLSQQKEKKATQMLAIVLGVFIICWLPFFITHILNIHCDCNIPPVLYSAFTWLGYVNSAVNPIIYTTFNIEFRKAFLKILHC
5-hydroxytryptamine receptor 6 (Homo sapiens), sequence (P50406 whole entry): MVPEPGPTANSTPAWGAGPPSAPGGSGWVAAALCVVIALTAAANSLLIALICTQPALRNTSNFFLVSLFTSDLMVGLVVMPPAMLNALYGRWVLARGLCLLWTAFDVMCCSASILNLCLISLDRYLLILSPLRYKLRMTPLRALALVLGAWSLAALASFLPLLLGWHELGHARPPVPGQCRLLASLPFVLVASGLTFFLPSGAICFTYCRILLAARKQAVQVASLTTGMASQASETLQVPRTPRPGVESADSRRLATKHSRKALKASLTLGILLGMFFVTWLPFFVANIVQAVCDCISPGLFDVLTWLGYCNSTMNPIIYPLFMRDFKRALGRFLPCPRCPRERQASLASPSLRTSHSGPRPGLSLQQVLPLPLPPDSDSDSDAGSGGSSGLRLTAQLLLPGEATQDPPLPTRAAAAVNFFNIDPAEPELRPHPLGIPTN
Beta-2 adrenergic receptor (Homo sapiens), sequence (P07550 whole entry, looked up): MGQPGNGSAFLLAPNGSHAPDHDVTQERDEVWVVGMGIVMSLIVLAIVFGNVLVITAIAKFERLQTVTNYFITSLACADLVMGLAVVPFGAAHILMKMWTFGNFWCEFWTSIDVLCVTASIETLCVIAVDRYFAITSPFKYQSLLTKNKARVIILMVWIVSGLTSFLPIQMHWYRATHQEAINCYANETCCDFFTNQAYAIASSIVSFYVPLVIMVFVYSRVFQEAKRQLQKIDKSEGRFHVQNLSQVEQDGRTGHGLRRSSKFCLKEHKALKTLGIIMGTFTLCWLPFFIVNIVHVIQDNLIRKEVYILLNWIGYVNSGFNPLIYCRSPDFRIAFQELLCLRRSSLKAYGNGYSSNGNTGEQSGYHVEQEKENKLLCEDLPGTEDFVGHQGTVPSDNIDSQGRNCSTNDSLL
Beta-1 adrenergic receptor (Homo sapiens), sequence (P08588 whole entry, looked up): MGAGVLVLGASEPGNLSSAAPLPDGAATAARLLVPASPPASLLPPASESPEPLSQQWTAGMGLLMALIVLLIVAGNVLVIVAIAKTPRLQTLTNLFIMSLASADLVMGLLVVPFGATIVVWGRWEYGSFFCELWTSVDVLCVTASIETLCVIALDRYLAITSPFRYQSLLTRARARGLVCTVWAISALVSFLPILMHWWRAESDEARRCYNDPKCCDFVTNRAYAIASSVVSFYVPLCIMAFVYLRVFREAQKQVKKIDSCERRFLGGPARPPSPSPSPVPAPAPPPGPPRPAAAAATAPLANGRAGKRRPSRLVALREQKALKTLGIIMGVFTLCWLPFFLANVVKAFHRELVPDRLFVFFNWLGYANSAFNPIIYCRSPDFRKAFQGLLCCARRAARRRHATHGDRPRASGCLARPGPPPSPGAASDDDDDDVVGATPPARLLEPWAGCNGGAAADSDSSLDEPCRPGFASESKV
5-hydroxytryptamine receptor 2C (Homo sapiens), sequence (P28335 whole entry): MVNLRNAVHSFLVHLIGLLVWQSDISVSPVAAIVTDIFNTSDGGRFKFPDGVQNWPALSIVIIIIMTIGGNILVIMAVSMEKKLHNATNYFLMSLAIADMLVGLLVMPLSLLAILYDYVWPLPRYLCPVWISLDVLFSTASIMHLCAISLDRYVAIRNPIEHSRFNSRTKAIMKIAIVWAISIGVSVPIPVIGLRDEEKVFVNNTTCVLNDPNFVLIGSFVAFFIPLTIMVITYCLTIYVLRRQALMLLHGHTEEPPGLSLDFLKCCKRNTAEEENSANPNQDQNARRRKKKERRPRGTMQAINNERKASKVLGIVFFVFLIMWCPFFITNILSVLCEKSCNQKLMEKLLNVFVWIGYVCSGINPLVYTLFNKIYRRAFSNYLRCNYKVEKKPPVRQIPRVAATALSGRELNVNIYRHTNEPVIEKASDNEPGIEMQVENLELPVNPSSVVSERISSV
17-beta-hydroxysteroid dehydrogenase 13, sequence (Q8VCR2 whole entry): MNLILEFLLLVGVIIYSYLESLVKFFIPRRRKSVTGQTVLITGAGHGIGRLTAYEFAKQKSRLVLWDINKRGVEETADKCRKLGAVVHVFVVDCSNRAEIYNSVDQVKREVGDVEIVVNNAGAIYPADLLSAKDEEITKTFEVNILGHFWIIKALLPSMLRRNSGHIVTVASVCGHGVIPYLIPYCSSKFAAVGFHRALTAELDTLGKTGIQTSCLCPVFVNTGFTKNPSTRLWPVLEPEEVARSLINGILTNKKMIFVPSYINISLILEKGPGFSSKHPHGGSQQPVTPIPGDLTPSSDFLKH
Estradiol 17-beta-dehydrogenase 11, sequence (Q8NBQ5 whole entry): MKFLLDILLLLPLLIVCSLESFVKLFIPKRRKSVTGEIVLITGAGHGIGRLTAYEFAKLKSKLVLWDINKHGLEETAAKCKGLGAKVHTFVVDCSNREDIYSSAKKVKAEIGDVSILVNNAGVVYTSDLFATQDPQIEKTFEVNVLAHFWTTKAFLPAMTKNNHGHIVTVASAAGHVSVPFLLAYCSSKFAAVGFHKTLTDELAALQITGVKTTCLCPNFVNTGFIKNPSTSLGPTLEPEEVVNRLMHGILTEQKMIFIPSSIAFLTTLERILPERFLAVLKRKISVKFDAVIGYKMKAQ
MAO-A, sequence (P21396 whole entry): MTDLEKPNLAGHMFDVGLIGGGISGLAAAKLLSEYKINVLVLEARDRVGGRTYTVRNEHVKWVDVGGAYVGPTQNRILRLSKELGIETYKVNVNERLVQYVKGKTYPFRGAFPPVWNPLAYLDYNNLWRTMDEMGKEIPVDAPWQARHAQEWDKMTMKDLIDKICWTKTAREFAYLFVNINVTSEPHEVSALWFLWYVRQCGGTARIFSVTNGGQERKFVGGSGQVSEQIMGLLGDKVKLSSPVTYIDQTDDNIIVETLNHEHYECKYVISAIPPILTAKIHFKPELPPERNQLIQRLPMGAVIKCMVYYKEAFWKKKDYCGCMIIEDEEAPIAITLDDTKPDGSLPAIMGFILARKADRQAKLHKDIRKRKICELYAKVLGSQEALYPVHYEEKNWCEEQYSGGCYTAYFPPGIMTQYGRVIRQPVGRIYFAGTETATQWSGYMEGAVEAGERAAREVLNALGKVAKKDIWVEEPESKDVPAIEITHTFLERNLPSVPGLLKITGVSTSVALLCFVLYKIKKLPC

Turning to `CCn1c(=O)c(C)cn(Cc2nnc(-c3ccc(F)c(OC)c3F)s2)c1=O`, the activity at 10 µM at hERG (KCNH2) is 100% (not active); on MAO-A it was 88% (not active). The inhibition in series [1] was 6.43%; in series [3], -1.07%; in [4] it was -5.43%; in [5] it was 11.7%; in [7], 16.4%. The inhibition constant Ki in series [2] was > 10 µM (not active). The half-maximal inhibitory concentration (IC50) in [6] is > 10 µM (not active). Also, the residual activity in series [8] is 110%.
For `CCn1c(=O)c(C)cn(Cc2nnc(-c3ccc(F)c(O)c3F)s2)c1=O`, the inhibition in series [9] was -6.39%; in series [10], -2.66%; in series [11] it was 0.69%; in series [12] it was 29.3%; in [7], 17.2%; in [13], -2.92%. The inhibition in series [14] was 5.93%. In addition, the residual activity in series [8] was 94%.
